Results: US4877734A, “Microbiologically produced α-acetylamino cinnamic acid acylase, method of its production and its use” (Degussa Aktiengesellschaft and Gesellschaft fur …, priority 1986, dated 1989)
≈ marks a conversion by molar mass, not a printed value. Blank lines part the entries; values can stand above or below the compound they belong to.

How the values were obtained:
[1] = tested on: ACA acylase; assay: Substrate specificity, test 3: peptides and N-acyl phenylalanines, amino acids detected with amino acid analyzer; format: biochemical, Brevibacterium spec.; conditions: for Activity / Relative Activity: 50 mM substrate, pH 7.5, 30° C.; for Activity: 0.1 U/ml ACA acylase; for Relative Activity: relative to α-acetylamino cinnamic acid = 100%
Method: Other substrates used were N-acetyl-L-phenylalanine, N-methoxycarbonyl-D,L-phenylalanine and various peptides. The test batch contained in these instances:
0.1 M potassium phosphate buffer (pH 7.5)
(§1) The batches (1 ml altogether) were agitated (30° C.) and samples were taken at different times. The amino acids produced by the acylase action were quantitatively detected with the aid of an amino acid analyzer. The activity of the enzymes is also indicated in this instance in international units-an activity of 1 U corresponds to the formation of 1 μmole amino acid per minute. The activities measured with the 3 test batches are listed in column 2 of Table 6 in mU/ml. For the determination of the relative activity (column 3 of Table 6), the activity of the α-acetylamino cinnamic acid as substrate was set equal to 100%.

[2] = tested on: ACA acylase; assay: Influences of inhibitors and activators on ACA acylase activity (standard conditions, coupled test with D-2-hydroxy-4-methylpentanoic acid dehydrogenase); format: biochemical, Brevibacterium spec.
Method: 0.1 M phosphate buffer for pH 7.5
(§2) limiting amounts of ACA acylase.
(Deviation: The tests with bivalent metal ions were performed in 0.1M tris/HCl buffer for pH 8.0.)

[3] = at 25° C.; cited from earlier work
[4] = tested on: ACA acylase; assay: Substrate specificity, test 2: α-acetylamino acrylic acid, photometric test coupled with L-alanine dehydrogenase; format: biochemical, Brevibacterium spec.
Method: 2. Test with α-acetylamino acrylic acid:
50 mM α-acetyl amino acrylic acid
1 U/ml L--alanine dehydrogenase
The activity was measured in an analogous manner (by a photometric test at 340 nm) (1 μmole NADH decrease would correspond to 1 μmole formation of alanine).
as §1

[5] = tested on: ACA acylase; assay: Substrate specificity, test 1: α-acetylamino cinnamic acid, photometric test coupled with L-phenylalanine dehydrogenase; format: biochemical, Brevibacterium spec.
Method: In a series of parallel batches, the substrate α-acetylamino cinnamic acid was replaced by other compounds and tested to see to what extent the enzyme accepts other substrates. The following test batches were used depending on the substrate used:
1. Test with α-acetylamino cinnamic acid as substrate:
50 mM α-acetylamino cinnamic acid
The activity was measured (at 340 nm) by a photometric test as described in Example 1.
as §1

[6] = tested on: ACA acylase; assay: Dependency of ACA acylase activity on substrate concentration, coupled with L-phenylalanine dehydrogenase (pH 8.5); format: biochemical, Brevibacterium spec.
Method: 0.7 mM ammonium chloride/ammonia buffer (pH 8.5)
0.5 U L--phenylalanine dehydrogenase
as §2
The α-acetylamino cinnamic acid concentration was varied within a range of 1-36 mM. […] The KM value for α-acetylamino cinnamic acid is 3.9 mM.

[7] = tested on: ACA acylase; assay: Dependency of ACA acylase activity on substrate concentration, coupled with D-2-hydroxy-4-methylpentanoic acid dehydrogenase (pH 7.5); format: biochemical, Brevibacterium spec.
Method: 0.1 M phosphate buffer (pH 7.5)
0.8 U D--2-hydroxy-4-methylpentanoic acid dehydrogenase
as §2
The α-acetylamino cinnamic acid concentration was varied within a range of 0.1-18 mM. […] The KM value for α-acetylamino cinnamic acid is at 0.45 mM.

[8] = reagent concentration 1 nM (so in the source), 0.1 M phosphate buffer pH 7.5, 30° C.
[9] = reagent concentration 10 nM (so in the source), 0.1 M phosphate buffer pH 7.5, 30° C.
[10] = bivalent metal ion, concentration 1 nM (so in the source), 0.1M tris/HCl buffer pH 8.0
[11] = bivalent metal ion, concentration 10 nM (so in the source), 0.1M tris/HCl buffer pH 8.0

Activity [1]: 0 mU.ml^-1
Relative Activity [1]: 0%
Compound: COC(=O)NC(Cc1ccccc1)C(=O)O (racemic) [N--methoxycarbonyl D,L--phenylalanine, N-methoxycarbonyl-D,L-phenylalanine]

Influence on the enzyme (in words) ([2]; addition of 1 mmole): activates
Residual Activity [2, 8]: 146%
Residual Activity [2, 9]: 123%
Compound: O[C@H](CS)[C@H](O)CS (racemic) [dithiothreitol]

Compound: c1ccc(-c2ccccn2)nc1 [2,2-dipyridyl]
Residual Activity [2, 8]: 97%
Residual Activity [2, 9]: 69%

Residual Activity [2, 8]: 100%
Residual Activity [2, 9]: 100%
Compound: OCCS [2-mercaptoethanol]

Compound: [Ca+2].[Cl-].[Cl-] [CaCl2]
Residual Activity [2, 10]: 99%
Residual Activity [2, 11]: 99%

Compound: [Cl][Cd][Cl] [CdCl2]
Residual Activity [2, 10]: 72%
Residual Activity [2, 11]: 29%
Influence on the enzyme (in words) ([2]; summary of properties): inhibiting action

Residual Activity [2, 8]: 111%
Residual Activity [2, 9]: 102%
Compound: O=C(O)CN(CCN(CC(=O)O)CC(=O)O)CC(=O)O [EDTA]

Compound: [Cl][Hg].[Cl][Hg] [Hg2 Cl2]
Influence on the enzyme (in words) ([2]; summary of properties): inhibiting action

Compound: [Cl][Hg][Cl] [HgCl2]
Residual Activity [2, 10]: 51%
Residual Activity [2, 11]: 0%

Compound: [Cl-].[Cl-].[Mg+2] [MgCl2]
Residual Activity [2, 10]: 100%
Residual Activity [2, 11]: 100%

Compound: [Cl][Mn][Cl] [MnCl2]
Residual Activity [2, 10]: 63%

Activity [1]: 0 mU.ml^-1
Relative Activity [1]: 0%
Substrate specificity: hydrolysis by the enzyme (in words) ([1]; summary of properties): not
Compound: CC(=O)N[C@@H](Cc1ccccc1)C(=O)O [N--acetyl-L--phenylalanine, N-acetyl-L-phenylalanine]

Compound: [Cl][Ni][Cl] [NiCl2]
Residual Activity [2, 10]: 83%
Residual Activity [2, 11]: 53%

Compound: N[C@@H](Cc1ccccc1)C(=O)O [Phe, L-phenylalanine]
solubility in H2 O [3]: 180000 µM (≈ 29.7 mg/mL)

Compound: [Cl-].[Cl-].[Zn+2] [ZnCl2]
Residual Activity [2, 10]: 86%
Residual Activity [2, 11]: 34%

Residual Activity [2, 8]: 72%
Residual Activity [2, 9]: 45%
Influence on the enzyme (in words) ([2]; summary of properties): inhibiting action
Compound: c1cnc2c(c1)ccc1cccnc12 [o-phenanthroline]

Residual Activity [2, 8]: 102%
Residual Activity [2, 9]: 81%
Compound: N[C@@H](CCC(=O)N[C@@H](CS)C(=O)NCC(=O)O)C(=O)O [red. glutathione]

Compound: C=C(NC(C)=O)C(=O)O [α-acetylamino acrylic acid]
Activity ([4]; 50 mM substrate, 0.1 U/ml ACA acylase, pH 8.0): 0 mU.ml^-1
Relative Activity ([4]; relative to α-acetylamino cinnamic acid = 100%, 50 mM substrate, pH 8.0): 0%
Substrate specificity: hydrolysis by the enzyme (in words) ([4]; summary of properties): not

Compound: CC(=O)NC(=Cc1ccccc1)C(=O)O [α-acetylamino cinnamic acid]
Activity ([5]; 50 mM substrate, 0.1 U/ml ACA acylase, pH 9.2): 125 mU.ml^-1
Substrate specificity: hydrolysis by the enzyme (in words) ([5]; summary of properties): hydrolyzes
Relative Activity ([5]; α-acetylamino cinnamic acid set equal to 100%, 50 mM substrate, pH 9.2): 100%
Km ([6]; pH 8.5, coupled with L-phenylalanine dehydrogenase): 3900 µM
Substrate concentration at which the optimum reaction speed is achieved ([6]; pH 8.5, concentration varied 1-36 mM): 16 mM
Km ([7]; pH 7.5): 450 µM
Km ([7]; pH 7.5, coupled with D-2-hydroxy-4-methylpentanoic acid dehydrogenase): 450 µM
Substrate concentration at which the optimum reaction speed is achieved ([7]; pH 7.5, concentration varied 0.1-18 mM): 5 mM

Compound: L--ala-L--his
Activity [1]: 43 mU.ml^-1
Relative Activity [1]: 34%

Compound: L--ala-L--phe
Activity [1]: 105 mU.ml^-1
Relative Activity [1]: 84%

Compound: L--ala-L--trp
Activity [1]: 66 mU.ml^-1
Relative Activity [1]: 53%

Compound: L--ala-L--tyr
Activity [1]: 78 mU.ml^-1
Relative Activity [1]: 62%

Compound: L--asp-L--phe
Activity [1]: 38 mU.ml^-1
Relative Activity [1]: 30%

Compound: L--his-L--phe
Activity [1]: 44 mU.ml^-1
Relative Activity [1]: 35%

Compound: L--leu-L--phe
Activity [1]: 102 mU.ml^-1
Relative Activity [1]: 82%

Compound: L--leu-L--trp
Activity [1]: 67 mU.ml^-1
Relative Activity [1]: 54%

Compound: L--leu-L--tyr
Activity [1]: 109 mU.ml^-1
Relative Activity [1]: 87%

Compound: L--phe-L--phe
Activity [1]: 41 mU.ml^-1
Relative Activity [1]: 33%

Compound: L--ser-L--phe
Activity [1]: 36 mU.ml^-1
Relative Activity [1]: 29%

Compound: gly-D-phe
Activity [1]: 0 mU.ml^-1
Relative Activity [1]: 0%

Compound: gly-L--phe
Activity [1]: 40 mU.ml^-1
Relative Activity [1]: 32%

Compound: gly-gly-L--phe
Activity [1]: 0 mU.ml^-1
Relative Activity [1]: 0%

Compound: p-mercuric benzoate
Residual Activity [2, 8]: 41%
Residual Activity [2, 9]: 3%
Influence on the enzyme (in words) ([2]; summary of properties): inhibiting action
